Here are results for one compound from ChEMBL document CHEMBL3886335, “Difluorolactam compounds as EP4 receptor-selective agonists for use in the treatment of EP4-mediated diseases and conditions” (2015).

For the test, the target named is Prostaglandin E2 receptor EP4 subtype (Homo sapiens, UniProt P35408). In words: The filters are dried then counted for radioactivity in a scintillation counter (Topcount, Packard) using a scintillation cocktail (Microscint 0, Packard). The format is cell membranes.

Structures are written as SMILES.

Prostaglandin E2 receptor EP4 subtype, sequence (P35408 whole entry): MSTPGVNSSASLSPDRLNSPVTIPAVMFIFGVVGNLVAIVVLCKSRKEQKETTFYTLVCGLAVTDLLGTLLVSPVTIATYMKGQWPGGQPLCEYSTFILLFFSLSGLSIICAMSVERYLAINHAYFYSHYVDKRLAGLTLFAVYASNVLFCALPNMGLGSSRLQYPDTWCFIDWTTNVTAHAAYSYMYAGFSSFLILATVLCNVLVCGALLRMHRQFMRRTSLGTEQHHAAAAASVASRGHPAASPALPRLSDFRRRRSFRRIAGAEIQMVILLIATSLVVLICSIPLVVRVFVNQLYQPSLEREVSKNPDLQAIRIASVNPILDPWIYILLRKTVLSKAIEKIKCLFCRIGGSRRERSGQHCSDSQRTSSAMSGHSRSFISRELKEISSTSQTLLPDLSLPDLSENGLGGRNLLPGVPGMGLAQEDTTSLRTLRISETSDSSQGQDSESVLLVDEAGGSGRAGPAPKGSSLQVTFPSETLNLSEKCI

Consider `CCC#CC[C@H](C)[C@H](O)/C=C/[C@H]1CC(F)(F)C(=O)N1CCCc1ccc(C(=O)O)s1`, for which the IC50 (usually the concentration that gives 50% inhibition) amounted to 3.3 nM; the Ki (as a rule, the dissociation constant of the complex between target and ligand, obtained from inhibition or displacement) came to 1.2 nM.
